According to ChEMBL document CHEMBL5149969, “Amyloid-β and tau aggregation dual-inhibitors: A synthetic and structure-activity relationship focused review” (Eur J Med Chem, 2021):

Tests used:
[1] = target: T1, Microtubule-associated protein tau (Homo sapiens, UniProt P10636); assay: Inhibition of tau aggregation (unknown origin) at 20 uM relative to control
[2] = Inhibition of amyloid beta 38 secretion transfected in human H4 cells incubated for 20 to 24 hrs by LPECL assay; type: cell-based
[3] = target: T1, Microtubule-associated protein tau; assay: Inhibition of tau depolymerization (unknown origin) transfected in H4 cells incubated for 20 to 24 hrs by LPECL assay; type: cell-based
[4] = target: T1, Microtubule-associated protein tau; assay: Inhibition of tau (unknown origin) transfected in human H4 cells incubated for 20 to 24 hrs by LPECL assay; type: cell-based
[5] = target: T2, Amyloid-beta precursor protein (Homo sapiens, UniProt P05067); assay: Inhibition of amyloid beta 42 (unknown origin) expressed in Escherichia coli BL21 (DE3) at 10 uM relative to control
[6] = target: T1, Microtubule-associated protein tau; assay: Inhibition of Tau (unknown origin) expressed in Escherichia coli BL21 (DE3) at 10 uM relative to control
[7] = target: T2, Amyloid-beta precursor protein; assay: Inhibition of amyloid beta 42 (unknown origin) at 20 uM relative to control
[8] = target: T2, Amyloid-beta precursor protein; assay: Inhibition of amyloid beta 42 transfected in human H4 cells incubated for 20 to 24 hrs by LPECL assay; type: cell-based

T1 sequence (P10636 whole entry): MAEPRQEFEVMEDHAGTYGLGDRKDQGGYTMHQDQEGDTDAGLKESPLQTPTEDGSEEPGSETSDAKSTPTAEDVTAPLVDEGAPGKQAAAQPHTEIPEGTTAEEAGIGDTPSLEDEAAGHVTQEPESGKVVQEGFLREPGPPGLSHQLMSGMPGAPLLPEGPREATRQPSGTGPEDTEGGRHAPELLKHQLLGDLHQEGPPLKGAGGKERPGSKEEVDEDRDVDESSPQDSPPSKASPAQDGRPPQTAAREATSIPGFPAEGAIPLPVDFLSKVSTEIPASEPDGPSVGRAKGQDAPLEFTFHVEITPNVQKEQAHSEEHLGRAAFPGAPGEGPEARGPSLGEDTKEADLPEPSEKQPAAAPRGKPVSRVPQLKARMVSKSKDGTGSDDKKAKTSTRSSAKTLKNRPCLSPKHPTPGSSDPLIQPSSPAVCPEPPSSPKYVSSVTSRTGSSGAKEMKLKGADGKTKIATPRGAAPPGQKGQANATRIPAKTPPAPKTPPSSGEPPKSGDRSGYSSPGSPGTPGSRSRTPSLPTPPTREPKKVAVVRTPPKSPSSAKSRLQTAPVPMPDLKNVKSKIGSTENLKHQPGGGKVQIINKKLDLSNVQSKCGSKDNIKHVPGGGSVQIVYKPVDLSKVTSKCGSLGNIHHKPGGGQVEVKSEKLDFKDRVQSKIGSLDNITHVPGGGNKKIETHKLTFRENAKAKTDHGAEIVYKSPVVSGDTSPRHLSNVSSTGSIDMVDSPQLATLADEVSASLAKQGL
T2 sequence (P05067 whole entry): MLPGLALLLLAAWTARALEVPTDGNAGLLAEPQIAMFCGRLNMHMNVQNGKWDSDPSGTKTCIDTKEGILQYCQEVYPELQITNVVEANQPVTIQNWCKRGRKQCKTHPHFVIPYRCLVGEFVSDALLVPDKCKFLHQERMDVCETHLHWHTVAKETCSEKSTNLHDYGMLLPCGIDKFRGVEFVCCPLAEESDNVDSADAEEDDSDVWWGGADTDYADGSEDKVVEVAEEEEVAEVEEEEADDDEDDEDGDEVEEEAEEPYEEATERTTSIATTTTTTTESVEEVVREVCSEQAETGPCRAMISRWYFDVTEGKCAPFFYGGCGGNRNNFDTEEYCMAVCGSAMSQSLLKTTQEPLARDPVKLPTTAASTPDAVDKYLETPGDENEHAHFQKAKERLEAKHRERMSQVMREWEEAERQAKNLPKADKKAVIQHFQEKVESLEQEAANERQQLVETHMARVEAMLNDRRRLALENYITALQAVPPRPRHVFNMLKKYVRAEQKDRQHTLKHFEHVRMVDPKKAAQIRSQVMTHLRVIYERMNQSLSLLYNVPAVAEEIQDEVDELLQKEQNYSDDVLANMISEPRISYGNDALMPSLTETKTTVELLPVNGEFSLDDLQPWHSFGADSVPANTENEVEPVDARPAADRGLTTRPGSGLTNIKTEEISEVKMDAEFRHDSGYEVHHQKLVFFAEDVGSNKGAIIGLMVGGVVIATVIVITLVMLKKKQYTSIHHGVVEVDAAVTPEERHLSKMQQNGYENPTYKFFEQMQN

SMILES | IC50 [2] | DC50 [3] | IC50 [4] | inhibition [5] | inhibition [6] | further results
CN(C)c1ccc2nc3ccc(=[N+](C)C)cc-3sc2c1 | – | – | – | – | – | inhibition [1]: 80.1%
C[n+]1c2c(c(N)c3ccccc31)C(=O)/C(=C/c1ccccc1)CC2 | – | – | – | – | – | inhibition [1]: 71.2%
COc1cc(/C=C/c2cc(/C=C/c3ccc(O)c(OC)c3)n(C)n2)ccc1O | 6.3 µM | 8 µM | 13 µM | – | – | –
Cc1c(OCc2ccccc2)cccc1N1CCN(CCCCCCCNc2c3c(nc4ccccc24)CCCC3)CC1 | – | – | – | 67.4% | 70.3% | –
Cc1c(OCc2ccccc2)cccc1N1CCN(CCNC2CCN(Cc3ccccc3)CC2)CC1 | – | – | – | 54.1% | 57.3% | –
Cc1c(OCc2ccccc2)cccc1N1CCN(CCCCCCNc2c3c(nc4ccccc24)CCCC3)CC1 | – | – | – | 66.9% | 64% | –
Cc1c(OCc2ccccc2)cccc1N1CCN(CCNc2c3c(nc4ccccc24)CCCC3)CC1 | – | – | – | 55.7% | 58.6% | –
C[n+]1c2c(c(N)c3ccccc31)C(=O)/C(=C/c1cccc([N+](=O)[O-])c1)CC2 | – | – | – | – | – | inhibition [1]: 98.2%; inhibition [7]: 86.4%
COc1cc(/C=C/c2cc(/C=C/c3ccc(O)c(OC)c3)n(-c3cccc([N+](=O)[O-])c3)n2)ccc1O | 8.1 µM | 4 µM | 5 µM | – | – | –
COc1cc(/C=C/C(=O)CC(=O)/C=C/c2ccc(O)c(OC)c2)ccc1O [CURCUMIN] | > 20 µM | – | – | – | – | –
Cc1c(OCc2ccccc2)cccc1N1CCN(CCCCNC2CCN(Cc3ccccc3)CC2)CC1 | – | – | – | 62% | 62.8% | –
Nc1c2c(nc3ccccc13)CC/C(=C\c1ccccc1)C2=O | – | – | – | – | – | inhibition [1]: 18.7%
C[n+]1c2c(c(N)c3ccccc31)C(=O)/C(=C/c1cccs1)CC2 | – | – | – | – | – | inhibition [1]: 95.3%
COc1cc(/C=C/c2cc(/C=C/c3ccc(O)c(OC)c3)n(CCO)n2)ccc1O | 13.6 µM | 65 µM | 69 µM | – | – | –
Cc1c(OCc2ccccc2)cccc1N1CCN(CCCCCCNCc2ccccc2)CC1 | – | – | – | 64.2% | 64.8% | –
COc1cc(/C=C/c2cc(/C=C/c3ccc(O)c(OC)c3)n(-c3cc(Cl)cc(Cl)c3)n2)ccc1O | 3.3 µM | > 200 µM | 10 µM | – | – | –
COc1cc(/C=C/c2cc(/C=C/c3ccc(O)c(OC)c3)n(-c3ccc([N+](=O)[O-])cc3)n2)ccc1O | 3.5 µM | 1.1 µM | 1.2 µM | – | – | IC50 [8]: > 1 µM
c1ccc(Cn2ccc3c(N4CCN(CCCCNc5c6c(nc7ccccc57)CCCC6)CC4)cccc32)cc1 | – | – | – | 57.7% | 62.9% | –

SMILES | IC50 [2] | DC50 [3] | IC50 [4] | inhibition [5] | inhibition [6] | further results
Cc1c(OCc2ccccc2)cccc1N1CCN(CCCNC2CCN(Cc3ccccc3)CC2)CC1 | – | – | – | 55.7% | 60.2% | –
O=S(=O)(c1ccccc1)n1ccc2c(N3CCN(CCN4CCN(Cc5cccc6c5ccn6Cc5ccccc5)CC4)CC3)cccc21 | – | – | – | 64.8% | 54.6% | –
COc1cc(/C=C/c2cc(/C=C/c3ccc(O)c(OC)c3)[nH]n2)ccc1O [CURCUMIN PYRAZOLE] | 5.2 µM | 17 µM | 34 µM | – | – | IC50 [8]: 0.476 µM
Cc1c(OCc2ccccc2)cccc1N1CCN(CCCNCc2ccccc2)CC1 | – | – | – | 64.9% | 64.5% | –
C[n+]1c2c(c(N)c3ccccc31)C(=O)/C(=C/c1cccc3ccccc13)CC2 | – | – | – | – | – | inhibition [1]: 102%
COc1cc(/C=C/c2cc(/C=C/c3ccc(OCC(=O)OC(C)(C)C)c(OC)c3)on2)ccc1OCC(=O)OC(C)(C)C | > 40 µM | > 200 µM | > 200 µM | – | – | IC50 [8]: > 1 µM
COc1cc(/C=C/c2cc(/C=C/c3ccc(O)c(OC)c3)n(-c3ccc(Cl)nn3)n2)ccc1O | 3.4 µM | 46 µM | 54 µM | – | – | IC50 [8]: > 1 µM
COc1cc(/C=C/c2cc(/C=C/c3ccc(O)c(OC)c3)n(-c3ccccc3)n2)ccc1O | 6.3 µM | 73 µM | 103 µM | – | – | IC50 [8]: > 1 µM
C[n+]1c2c(c(N)c3ccccc31)C(=O)/C(=C/c1cccc(Cl)c1)CC2 | – | – | – | – | – | inhibition [1]: 98.3%
COc1cc(/C=C/c2cc(/C=C/c3ccc(OCC(=O)O)c(OC)c3)on2)ccc1OCC(=O)O | > 40 µM | > 200 µM | > 200 µM | – | – | IC50 [8]: > 1 µM
C[n+]1c2c(c(N)c3ccccc31)C(=O)/C(=C/c1cccc(F)c1)CC2 | – | – | – | – | – | inhibition [1]: 86.3%
COc1cc(/C=C/c2cc(/C=C/c3ccc(O)c(OC)c3)n(Cc3ccccc3)n2)ccc1O | 7.7 µM | 73 µM | 35 µM | – | – | IC50 [8]: > 1 µM
O=S(=O)(c1ccccc1)n1ccc2c(N3CCN(CCCCCCNC4CCN(Cc5ccccc5)CC4)CC3)cccc21 | – | – | – | 61.8% | 52.7% | –
COc1cc(/C=C/c2cc(/C=C/c3ccc(O)c(OC)c3)n(-c3ccc(C)cc3)n2)ccc1O | 6 µM | > 200 µM | 35 µM | – | – | IC50 [8]: > 1 µM
Cc1c(OCc2ccccc2)cccc1N1CCN(CCCCCCCCNc2c3c(nc4ccccc24)CCCC3)CC1 | – | – | – | 66.7% | 60.2% | –
COc1cc(/C=C/c2cc(/C=C/c3ccc(O)c(OC)c3)n(-c3ccc(C(C)C)cc3)n2)ccc1O | 4.7 µM | 190 µM | 18 µM | – | – | IC50 [8]: > 1 µM
COc1cc(/C=C/c2cc(/C=C/c3ccc(O)c(OC)c3)on2)ccc1O | 6.1 µM | > 200 µM | > 200 µM | – | – | –
